Test results: PMC9974930 (Journal of medicinal chemistry, 2023)
pIC50: −log10 of the molar value. Read-outs that look alike come from different tables or passages of the source.

Tests used:
[1] = biological target: T1, murine sEH (MsEH) (Mus musculus, UniProt P34914); test: sEH inhibition, fluorescent-based assay with PHOME substrate; type: biochemical
T1 sequence (P34914 1-554): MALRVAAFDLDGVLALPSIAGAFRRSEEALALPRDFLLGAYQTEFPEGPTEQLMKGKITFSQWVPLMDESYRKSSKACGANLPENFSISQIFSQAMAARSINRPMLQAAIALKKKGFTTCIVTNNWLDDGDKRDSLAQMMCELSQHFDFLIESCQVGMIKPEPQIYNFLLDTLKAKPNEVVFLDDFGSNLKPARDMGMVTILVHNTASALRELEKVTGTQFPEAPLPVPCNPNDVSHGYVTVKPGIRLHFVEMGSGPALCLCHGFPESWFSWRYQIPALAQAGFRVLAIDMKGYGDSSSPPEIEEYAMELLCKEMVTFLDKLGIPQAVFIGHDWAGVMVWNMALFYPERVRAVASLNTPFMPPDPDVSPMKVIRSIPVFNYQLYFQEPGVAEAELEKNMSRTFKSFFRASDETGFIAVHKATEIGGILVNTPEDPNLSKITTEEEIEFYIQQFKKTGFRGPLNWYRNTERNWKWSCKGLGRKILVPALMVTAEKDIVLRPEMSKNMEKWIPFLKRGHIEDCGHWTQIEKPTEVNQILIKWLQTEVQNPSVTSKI

[2] = biological target: T2, recombinant human sEH (HsEH) (Homo sapiens, UniProt P34913); test: biochemical
T2 sequence (P34913 1-555): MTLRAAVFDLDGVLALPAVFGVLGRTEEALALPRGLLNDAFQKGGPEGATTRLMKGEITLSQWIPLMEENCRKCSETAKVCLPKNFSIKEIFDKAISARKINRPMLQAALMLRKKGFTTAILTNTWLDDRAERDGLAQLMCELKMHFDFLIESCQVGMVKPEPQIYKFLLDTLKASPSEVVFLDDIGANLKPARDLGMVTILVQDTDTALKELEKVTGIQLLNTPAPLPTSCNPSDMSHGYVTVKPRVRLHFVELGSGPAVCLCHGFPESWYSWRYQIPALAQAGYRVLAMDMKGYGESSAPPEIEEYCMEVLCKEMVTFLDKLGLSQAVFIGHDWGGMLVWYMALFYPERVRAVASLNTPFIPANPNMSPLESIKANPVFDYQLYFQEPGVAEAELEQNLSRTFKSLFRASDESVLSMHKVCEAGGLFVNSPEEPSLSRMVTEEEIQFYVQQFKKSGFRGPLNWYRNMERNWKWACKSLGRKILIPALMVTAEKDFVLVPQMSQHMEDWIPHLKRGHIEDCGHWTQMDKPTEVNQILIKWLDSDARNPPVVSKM

[3] = Microsomal stability in human liver microsomes
[4] = test system: IL-6, MCP-5 and TNF-α; test: ELISA of plasma inflammatory factors, LPS-induced sepsis model; type: in vivo, C57BL/6 mice; conditions: 5 mg / kg ip
[5] = Microsomal stability in rat liver microsomes
[6] = test system: CFA-induced AIA mice; test: CFA-induced arthritis; type: in vivo, Kunming mice; conditions: 10 mg / kg ip; for body weight change: 24 h of drug treatment
[7] = test system: COX-2, sEH, NOS-2 and VCAM; test: Western blot of inflammatory factors in plasma, LPS-induced sepsis model; type: in vivo, C57BL/6 mice; conditions: 5 mg / kg ip
[8] = Pharmacokinetic study in vivo
[9] = test system: LPS-induced sepsis model; test: LPS-induced sepsis model, survival; type: in vivo, C57BL/6 mice; conditions: 28 hours; LPS 30 mg / kg ip; 5 mg / kg ip at 4 h and 12 h later
[10] = both, Sprague-Dawley, rat, in vivo, iv, 10 mg/kg

C[C@]12C[C@@H]3C[C@](C)(C1)C[C@@](NC(=O)Nc1ccc(C(=O)N4CCC(C(=O)N5CCN(CCO)CC5)CC4)cc1F)(C3)C2 [A4, 1-((1r,3R,5S,7r)-3,5-Dimethyladamantan-1-yl)-3-(2-fluoro-4-(4-(4-(2-hydroxyethyl)piperazine-1-carbonyl)piperidine-1-carbonyl)phenyl)urea]
pIC50 [1]: 9.49 | pIC50 [2]: 7.90

CCC(=O)N1CCCN(C(=O)C2CCCN(Cc3ccc(NC(=O)N[C@@]45C[C@@H]6C[C@@](C)(C[C@@](C)(C6)C4)C5)c(F)c3)C2)CC1 (stereo partly drawn) [G1, 1-((1r,3R,5S,7r)-3,5-Dimethyladamantan-1-yl)-3-(2-fluoro-4-((3-(4-propionyl-1,4-diazepane-1-carbonyl)piperidin-1-yl)methyl)phenyl)urea]
Mean concentration of G1 in microsomal buffer ([3]; time 0): 100 µg/mL | Mean concentration of G1 in microsomal buffer ([3]; time 10): 81.12 µg/mL | Mean concentration of G1 in microsomal buffer ([3]; time 30): 74.76 µg/mL | Mean concentration of G1 in microsomal buffer ([3]; time 60): 68.78 µg/mL | LLE (ligand lipophilicity efficiency) [2]: 7.553 | IL-6 levels [4]: significant reduction in IL-6 levels | TNF-α levels [4]: considerably lowered TNF-α levels | effect of lowering MCP-5 [4]: lower than dexamethasone | Mean concentration of G1 in microsomal buffer ([5]; time 0): 100 µg/mL | Mean concentration of G1 in microsomal buffer ([5]; time 10): 75.04 µg/mL | Mean concentration of G1 in microsomal buffer ([5]; time 30): 66.63 µg/mL | Mean concentration of G1 in microsomal buffer ([5]; time 60): 62.01 µg/mL | effect on paw swelling rate, in words [6]: significantly reduced the swelling rate of mouse paw thickness | increase of pain valve (pain threshold, hot plate) [6]: 70.10% | reduced foot swelling, thickness [6]: 21.4% | reduced foot swelling, width [6]: 6.98% | body weight change [6]: increase in body weight | effect on pain threshold, in words ([6]; hot plate): faster onset of analgesia than celecoxib | time after administration at which analgesic effect began ([6]; hot plate): 10 min | time of peak analgesic effect ([6]; hot plate): 2 h | COX-2 expression levels [7]: higher than in the control group | NOS-2 expression [7]: reduced NOS-2 expression | expression of sEH ([7]; compared to the model group): significantly reduced the expression of sEH | vascular cell adhesion molecule (VCAM) ([7]; compared to the solvent group): little change | AUC(0-inf) [8, 10]: 0.0115 µM·h | clearance [8, 10]: 4.83 mL/min/kg | AUC(0-inf) ([8]; both, Sprague-Dawley, rat, in vivo, po, 50 mg/kg): 0.0102 µM·h | CL ([8]; rats, po 50 mg / kg): 28.3 mL/min/kg | VZ ([8]; rats, po 50 mg / kg): 13.12 L/kg

CC(CN(C)C)N1CCC(CC(=O)N2CCCN(C(=O)c3ccc(NC(=O)N[C@@]45C[C@@H]6C[C@@](C)(C[C@@](C)(C6)C4)C5)c(F)c3)CC2)CC1 (stereo partly drawn) [H4, 1-((1r,3R,5S,7r)-3,5-Dimethyladamantan-1-yl)-3-(4-(4-(2-(1-(1-(dimethylamino)propan-2-yl)piperidin-4-yl)acetyl)-1,4-diazepane-1-carbonyl)-2-fluorophenyl)urea]
LLE (ligand lipophilicity efficiency) ([2]; LLE = pIC50-cLogP): 3.920

CC(=O)N1CCC(CC(=O)N2CCCN(Cc3ccc(NC(=O)N[C@@]45C[C@@H]6C[C@@](C)(C[C@@](C)(C6)C4)C5)c(F)c3)CC2)CC1 [I1, 1-(4-((4-(2-(1-Acetylpiperidin-4-yl)acetyl)-1,4-diazepan-1-yl)methyl)-2-fluorophenyl)-3-((1r,3R,5S,7r)-3,5-dimethyladamantan-1-yl)urea]
LLE (ligand lipophilicity efficiency) ([2]; LLE = pIC50-cLogP): 6.119

CCC(=O)N1CCC(CC(=O)N2CCCN(Cc3ccc(NC(=O)N[C@@]45C[C@@H]6C[C@@](C)(C[C@@](C)(C6)C4)C5)c(F)c3)CC2)CC1 [I2, 1-((1r,3R,5S,7r)-3,5-Dimethyladamantan-1-yl)-3-(2-fluoro-4-((4-(2-(1-propionylpiperidin-4-yl)acetyl)-1,4-diazepan-1-yl)methyl)phenyl)urea]
pIC50 [2]: 9.46 | LLE (ligand lipophilicity efficiency) ([2]; LLE = pIC50-cLogP): 5.623

CCC(C)C(=O)N1CCC(CC(=O)N2CCCN(Cc3ccc(NC(=O)N[C@@]45C[C@@H]6C[C@@](C)(C[C@@](C)(C6)C4)C5)c(F)c3)CC2)CC1 (stereo partly drawn) [I3, 1-((1r,3R,5S,7r)-3,5-Dimethyladamantan-1-yl)-3-(2-fluoro-4-((4-(2-(1-(2-methylbutanoyl)piperidin-4-yl)acetyl)-1,4-diazepan-1-yl)methyl)phenyl)urea]
LLE (ligand lipophilicity efficiency) ([2]; LLE = pIC50-cLogP): 4.337

COC(=O)N1CCC(CC(=O)N2CCCN(Cc3ccc(NC(=O)N[C@@]45C[C@@H]6C[C@@](C)(C[C@@](C)(C6)C4)C5)c(F)c3)CC2)CC1 [I4, Methyl-4-(2-(4-(4-(3-((1r,3R,5S,7r)-3,5-dimethyladamantan-1-yl)ureido)-3-fluorobenzyl)-1,4-diazepan-1-yl)-2-oxoethyl)piperidine-1-carboxylate]
LLE (ligand lipophilicity efficiency) ([2]; LLE = pIC50-cLogP): 5.125

C[C@]12C[C@@H]3C[C@](C)(C1)C[C@@](NC(=O)Nc1ccc(CN4CCCN(C(=O)CC5CCN(CCO)CC5)CC4)cc1F)(C3)C2 [I5, 1-((1r,3R,5S,7r)-3,5-Dimethyladamantan-1-yl)-3-(2-fluoro-4-((4-(2-(1-(2-hydroxyethyl)piperidin-4-yl)acetyl)-1,4-diazepan-1-yl)methyl)phenyl)urea]
LLE (ligand lipophilicity efficiency) ([2]; LLE = pIC50-cLogP): 4.937

CN(C)CCN1CCC(CC(=O)N2CCCN(Cc3ccc(NC(=O)N[C@@]45C[C@@H]6C[C@@](C)(C[C@@](C)(C6)C4)C5)c(F)c3)CC2)CC1 [I7, 1-((1r,3R,5S,7r)-3,5-Dimethyladamantan-1-yl)-3-(4-((4-(2-(1-(2-(dimethylamino)ethyl)piperidin-4-yl)acetyl)-1,4-diazepan-1-yl)methyl)-2-fluorophenyl)urea]
LLE (ligand lipophilicity efficiency) ([2]; LLE = pIC50-cLogP): 4.517

CCN(CC)CCN1CCC(CC(=O)N2CCCN(Cc3ccc(NC(=O)N[C@@]45C[C@@H]6C[C@@](C)(C[C@@](C)(C6)C4)C5)c(F)c3)CC2)CC1 [I8, 1-(4-((4-(2-(1-(2-(Diethylamino)ethyl)piperidin-4-yl)acetyl)-1,4-diazepan-1-yl)methyl) −2-fluorophenyl)-3-((1r,3R,5S,7r)-3,5-dimethyladamantan-1-yl)urea]
LLE (ligand lipophilicity efficiency) ([2]; LLE = pIC50-cLogP): 3.910

Cc1ccc(-c2cc(C(F)(F)F)nn2-c2ccc(S(N)(=O)=O)cc2)cc1 [celecoxib, reference compound]
reduced foot swelling, thickness [6]: 17.99% | reduced foot swelling, width [6]: 6.4% | body weight change [6]: increase in body weight | effect on pain threshold, in words ([6]; hot plate): did not significantly raise the pain threshold at 2 h

C[C@@H]1C[C@H]2[C@@H]3CCC4=CC(=O)C=C[C@]4(C)[C@@]3(F)[C@@H](O)C[C@]2(C)[C@@]1(O)C(=O)CO [dexamethasone, reference compound]
IL-6 levels [4]: significant reduction in IL-6 levels | TNF-α levels [4]: considerably lowered TNF-α levels | survival rate [9]: all of the mice in the dexamethasone group died | COX-2 expression levels [7]: higher than in the control group
